Earlier results in patent publication US20210361700A1 (priority 2020, published 2021).

Test system: influenza
Conditions: older mice

Question: With Vitamin E as the substance, how does the “resistance to and pathogenesis of influenza” value read?
Answer: The value was “Increases resistance to and”.
